US20260256751A1, “COMBINATION OF BETA-2-ADRENERGIC RECEPTOR AGONISTS AND GLP-1 RECEPTOR AGONISTS FOR USE IN TREATING HYPERGLYCAEMIA” (ATROGI AB, priority 2023, published 2026)

What was measured:
[1] = tested on: differentiated L6-myotubes; assay: Glucose uptake screen (Biological example 1 of WO 2019/053427); format: cell-based; conditions: compound at 10 μM, activity relative to isoproterenol at 10 μM, read-out: Biological example 1 of WO 2019/053427 (GU)
Experimental: (§1) Compounds described in publications referenced and incorporated herein were screened in accordance with the procedures outlined in Biological example 1 and Biological example 2 of WO 2019/053427.
L6-myoblasts were grown in Dulbecco's Modified Eagle's Medium (DMEM) containing 1 g/L glucose supplemented with 10% fetal bovine serum (FBS), 2 mM L-glutamine, 50 U/mL penicillin, […] streptomycin and 10 mM HEPES. Cells were plated at 1x 10^5 cells per mL in 24-well plates. After reaching 90% confluence the cells were grown in medium containing 2% FBS for 7 days where upon cells differentiated into myotubes. The differentiated L6-myotubes were serum-starved overnight in medium containing 0.5% fatty-acid free BSA and stimulated with Compound A at a final concentration of 1×10^−5 M in the presence of the selective β2-adrenergic receptor antagonist ICI-118551. After 1 h 40 min the cells were washed with warm, glucose free medium twice and another portion of agonist was added to the glucose free medium. After another 20 min of incubation the cells were exposed to 50 nM ^3H-2-deoxyglucose for 10 min before washed in ice cold glucose free medium three times and lysed in 400 µl/well 0.2 M NaOH for 1 h at 60° C. The cell lysate was mixed with 4 ml scintillation buffer (Emulsifier Safe, Perkin Elmer) and the radioactivity was detected in a P-counter (Tri-Carb 4810TR, Perkin Elmer).

[2] = tested on: differentiated L6-myotubes; assay: cAMP production relative to isoprenaline (Biological example 2 of WO 2019/053427); format: cell-based; conditions: 0.25 h, compound at 10 μM, activity relative to isoproterenol at 10 μM
Text: For example, the level of cAMP production induced by a given compound can be determined by reference to the amount induced by a defined concentration of that compound relative to that induced by the same concentration of a reference compound, such as isoprenaline, using techniques known to those skilled in the art (e.g. following the protocol as described in the biological examples provided in WO 2019/053427, i.e. in cells, such as differentiated L6-myotubes, having been stimulated with isoprenaline or the compound with a final concentration of 1×10^−5 M, for 15 min in stimulation buffer, such as HBSS supplemented with 1% BSA, 5 mM HEPES and 1 mM IBMX, at pH 7.4).
as §1

Row | Structure (SMILES) | Emax at 10 µM [1] [%] | Emax at 10 µM [2] [%]
1 | CCCCNCC(O)c1cc(F)c(N)c(F)c1 (stereo not shown) [Compound 37, 1-(4-amino-3,5-difluorophenyl)-2-(butylamino)-1-ethanol] | > 75 | > 75
2 | CCCCNCC(O)c1ccc(F)c(NC(C)=O)c1F (stereo not shown) [Compound 42, N-{3-[2-(butylamino)-1-hydroxyethyl]-2,6-difluorophenyl}acetamide] | 25 to 50 | < 25
3 | CCCCNCC(O)c1ccc(F)c(N)c1F (stereo not shown) [Compound 43, 1-(3-amino-2,4-difluorophenyl)-2-(butylamino)-1-ethanol] | > 75 | < 25
4 | CCCCNCC(O)c1ccc(F)c(N)c1 (stereo not shown) [Compound 44, 1-(3-amino-4-fluorophenyl)-2-(butylamino)-1-ethanol] | 50 to 75 | < 25
5 | CCC[C@@H]1CCC[C@H]([C@H](O)c2cccc(O)c2)N1 [Compound 45, (R)-[(2R,6R)-6-propyl-2-piperidyl](m-hydroxyphenyl)methanol] | > 75 | < 25
6 | CCCCNC[C@H](O)c1ccc(F)cc1 [Compound 46, (R)-2-(butylamino)-1-(p-fluorophenyl)-1-ethanol] | 50 to 75 | < 25
7 | CCCCNC[C@H](O)c1cccc(F)c1 [Compound 47, (R)-2-(butylamino)-1-(m-fluorophenyl)-1-ethanol] | 50 to 75 | < 25
8 | CCCCNCC(O)c1ccncc1 (stereo not shown) [Compound 48, 2-(butylamino)-1-(4-pyridyl)-1-ethanol] | 25 to 50 | < 25
9 | CCCCNCC(O)c1cccnc1 (stereo not shown) [Compound 49, 2-(butylamino)-1-(3-pyridyl)-1-ethanol] | 50 to 75 | < 25
10 | CCC[C@@H](C)NC[C@H](O)c1cccc(F)c1 [Compound 50, (R)-2-[(R)-1-methylbutylamino]-1-(m-fluorophenyl)-1-ethanol] | > 75 | < 25
11 | CCC[C@H](C)NC[C@H](O)c1cccc(F)c1 [Compound 51, (R)-2-[(S)-1-methylbutylamino]-1-(m-fluorophenyl)-1-ethanol] | > 75 | < 25
12 | CCC[C@@H](C)NC[C@H](O)c1ccc(F)cc1 [Compound 52, (R)-2-[(R)-1-methylbutylamino]-1-(p-fluorophenyl)-1-ethanol] | 50 to 75 | < 25
13 | CCC[C@H](C)NC[C@H](O)c1ccc(F)cc1 [Compound 53, (R)-2-[(S)-1-methylbutylamino]-1-(p-fluorophenyl)-1-ethanol] | 50 to 75 | < 25
14 | CC(C)(C)NC[C@H](O)c1cccc(F)c1 [Compound 54, (R)-2-(tert-butylamino)-1-(m-fluorophenyl)-1-ethanol] | > 75 | < 25
15 | CCCCNCC(O)c1cc(F)cc(F)c1 (stereo not shown) [Compound 55, 2-(butylamino)-1-(3,5-difluorophenyl)-1-ethanol] | 50 to 75 | < 25
16 | CCCCNCC(O)c1ccc(F)c(F)c1 (stereo not shown) [Compound 56, 2-(butylamino)-1-(3,4-difluorophenyl)-1-ethanol] | 50 to 75 | < 25
17 | CCC[C@@H]1CC[C@H]([C@H](O)c2cccc(O)c2)N1 [Compound 57, m-{(R)-[(2R,5R)-5-propyl-2-pyrrolidinyl]hydroxymeth-yl}phenol] | > 75 | 50 to 75
18 | CCC[C@@H]1CC[C@H]([C@H](O)c2cccc(F)c2)N1 [Compound 58, (R)-[(2R,5R)-5-propyl-2-pyrrolidinyl](m-fluorophenyl)methanol] | > 75 | 25 to 50
19 | CCC[C@@H]1CCC[C@H]([C@H](O)c2cccc(F)c2)N1 [Compound 59, (R)-[(2R,6R)-6-propyl-2-piperidyl](m-fluorophenyl)methanol] | 25 to 50 | < 25
20 | CCC[C@@H]1CCC[C@H]([C@@H](O)c2cccc(F)c2)N1 [Compound 60, (S)-[(2R,6R)-6-propyl-2-piperidyl](m-fluorophenyl)methanol] | 25 to 50 | < 25
21 | CCCC(C)(C)NC[C@H](O)c1cccc(F)c1 [Compound 61, (R)-2-(1,1-dimethylbutylamino)-1-(m-fluorophenyl)-1-ethanol] | > 75 | < 25

Row | Structure (SMILES) | Emax at 10 µM [1] [%] | Emax at 10 µM [2] [%]
22 | CCCCNCC(O)c1cc[nH]c(=O)c1 (stereo not shown) [Compound 62, 4-[2-(butylamino)-1-hydroyxethyl]-2(1H)-pyridinone] | 25 to 50 | < 25
23 | CCCCNCC(O)c1ccc(=O)[nH]c1 (stereo not shown) [Compound 63, 5-[2-(butylamino)-1-hydroxyethyl]-2(1H)-pyridinone] | 25 to 50 | < 25
24 | CCC[C@H]1CCC[C@H]([C@H](O)c2cccc(O)c2)N1 [Compound 64, (R)-[(2R,6S)-6-propyl-2-piperidyl](m-hydroxyphenyl)methanol] | > 75 | < 25
25 | CCC[C@H]1CCC[C@H]([C@@H](O)c2ccc(F)c(F)c2)N1 [Compound 65, (S)-[(2R,6S)-6-propyl-2-piperidyl](3,4-difluorophenyl)methanol] | 25 to 50 | < 25
26 | CCC[C@H]1CCC[C@H]([C@@H](O)c2cc(F)cc(F)c2)N1 [Compound 66, (S)-[(2R,6S)-6-propyl-2-piperidyl](3,5-difluorophenyl)methanol] | 25 to 50 | < 25
27 | CCC[C@H]1CCC[C@H]([C@H](O)c2ccc(F)c(F)c2)N1 [Compound 67, (R)-[(2R,6S)-6-propyl-2-piperidyl](3,4-difluorophenyl)methanol] | 25 to 50 | < 25
28 | CCC[C@H]1CCC[C@H]([C@H](O)c2cc(F)cc(F)c2)N1 [Compound 68, (R)-[(2R,6S)-6-propyl-2-piperidyl](3,5-difluorophenyl)methanol] | 50 to 75 | < 25
29 | CCC[C@H]1CCC[C@H]([C@H](O)c2cccc(F)c2)N1 [Compound 69, (R)-[(2R,6S)-6-propyl-2-piperidyl](m-fluorophenyl)methanol] | 50 to 75 | < 25
30 | CCC[C@H]1CCC[C@H]([C@@H](O)c2cccc(F)c2)N1 [Compound 70, (S)-[(2R,6S)-6-propyl-2-piperidyl](m-fluorophenyl)methanol] | 50 to 75 | < 25
31 | CCCCNC[C@H](O)c1csc(N)n1 [Compound 71, (S)-1-(2-amino-1,3-thiazol-4-yl)-2-(butylamino)-1-ethanol] | 25 to 50 | < 25
32 | CCCCNC[C@H](O)c1csc(C(F)(F)F)n1 [Compound 72, (S)-2-(butylamino)-1-[2-(trifluoromethyl)-1,3-thiazol-4-yl]-1-ethanol] | 25 to 50 | < 25
33 | CCCCNC[C@H](O)c1ccnc(N)n1 [Compound 73, (S)-1-(2-amino-4-pyrimidinyl)-2-(butylamino)-1-ethanol] | 25 to 50 | < 25
34 | CCCCNC[C@H](O)c1cnc(NC(=O)C(C)C)s1 [Compound 74, N-{5-[(2S)-2-(butylamino)-1-hydroxyethyl]-1,3-thiazol-2-yl}2-methylpropionamide] | 25 to 50 | < 25
35 | CCCCNC[C@H](O)c1cnc(N)s1 [Compound 75, (S)-1-(2-amino-1,3-thiazol-5-yl)-2-(butylamino)-1-ethanol] | 25 to 50 | < 25
36 | CC(C)(C)NC[C@H](O)c1cccc(F)c1F [Compound 76, (R)-2-(tert-butylamino)-1-(2,3-difluorophenyl)-1-ethanol] | > 75 | 25 to 50
37 | CCCCNC[C@H](O)c1cccc(F)c1F [Compound 77, (R)-2-(butylamino)-1-(2,3-difluorophenyl)-1-ethanol] | > 75 | < 25
38 | CC(C)(C)NC[C@H](O)c1ccccc1F [Compound 78, (R)-2-(tert-butylamino)-1-(o-fluorophenyl)-1-ethanol] | > 75 | 25 to 50
39 | CCCCNC[C@H](O)c1ccccc1F [Compound 79, (R)-2-(butylamino)-1-(o-fluorophenyl)-1-ethanol] | > 75 | < 25
40 | CC(C)(C)NC[C@H](O)c1ccc(F)cc1O [Compound 80, (R)-2-(tert-butylamino)-1-(4-fluoro-2-hydroxyphenyl)-1-ethanol] | 50 to 75 | < 25
41 | CCCCNC[C@H](O)c1ccc(F)cc1O [Compound 81, (R)-2-(butylamino)-1-(4-fluoro-2-hydroxyphenyl)-1-ethanol] | 50 to 75 | < 25
